From BindingDB's records for doi:10.1016/j.bmcl.2006.12.033 (F. Hoffmann-La Roche, 2007) come the findings set out here.

A value given as a limit tells only on which side of the number the result lay.

The target of test [1] is T1, Metabotropic glutamate receptor 5 (Homo sapiens, UniProt P41594). Kind of test: Displacement of [3H]MPEP from mGlu5 receptor. For orientation: Loss of bound radioactivity is the signal in a displacement assay; it reports binding, not function.
The target of test [2] is T1, Metabotropic glutamate receptor 5. Kind of test: Antagonist activity at mGluR5 by FLIPR.

T1 sequence (P41594 whole entry): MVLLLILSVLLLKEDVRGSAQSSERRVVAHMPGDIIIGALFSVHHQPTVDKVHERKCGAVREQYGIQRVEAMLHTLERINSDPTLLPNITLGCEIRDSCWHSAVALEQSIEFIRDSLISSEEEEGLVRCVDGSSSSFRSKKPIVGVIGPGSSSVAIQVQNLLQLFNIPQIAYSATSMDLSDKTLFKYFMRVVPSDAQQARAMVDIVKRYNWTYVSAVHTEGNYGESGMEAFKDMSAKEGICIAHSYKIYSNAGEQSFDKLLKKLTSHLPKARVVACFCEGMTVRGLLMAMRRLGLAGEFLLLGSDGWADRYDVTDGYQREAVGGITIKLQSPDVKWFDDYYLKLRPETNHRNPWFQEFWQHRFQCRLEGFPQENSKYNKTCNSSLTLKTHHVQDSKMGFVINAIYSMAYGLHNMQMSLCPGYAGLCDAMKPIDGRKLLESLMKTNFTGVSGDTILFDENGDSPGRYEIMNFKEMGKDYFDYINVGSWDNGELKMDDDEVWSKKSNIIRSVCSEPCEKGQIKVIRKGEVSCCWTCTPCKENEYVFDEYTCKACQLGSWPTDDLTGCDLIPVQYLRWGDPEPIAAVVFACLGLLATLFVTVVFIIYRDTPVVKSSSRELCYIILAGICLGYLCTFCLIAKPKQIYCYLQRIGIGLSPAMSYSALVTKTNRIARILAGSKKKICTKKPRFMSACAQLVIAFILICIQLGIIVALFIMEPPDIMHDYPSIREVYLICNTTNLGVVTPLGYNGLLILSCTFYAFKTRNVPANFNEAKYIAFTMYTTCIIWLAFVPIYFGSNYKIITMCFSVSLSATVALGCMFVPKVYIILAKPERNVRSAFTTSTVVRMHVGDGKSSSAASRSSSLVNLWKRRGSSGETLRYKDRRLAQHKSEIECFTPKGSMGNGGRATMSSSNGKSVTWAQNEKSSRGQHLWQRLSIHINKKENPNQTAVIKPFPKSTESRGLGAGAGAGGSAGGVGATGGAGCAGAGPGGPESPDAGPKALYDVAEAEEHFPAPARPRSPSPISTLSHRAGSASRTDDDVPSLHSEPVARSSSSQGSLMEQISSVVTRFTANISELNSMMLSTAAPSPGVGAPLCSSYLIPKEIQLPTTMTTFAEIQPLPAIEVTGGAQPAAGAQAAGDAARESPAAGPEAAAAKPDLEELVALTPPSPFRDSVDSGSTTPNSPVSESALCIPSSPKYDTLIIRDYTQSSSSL

With `Cn1cc(O)nc1NC(=O)Nc1ccc(Cl)cc1` [(E)-1-(4-chlorophenyl)-3-(1-methyl-4-oxoimidazolidin-2-ylidene)urea], the half-maximal inhibitory concentration (IC50) in test [1] and in test [2] was > 5 µM each time.
`Cn1cc(O)nc1NC(=O)Nc1cccnc1` [(E)-1-(1-methyl-4-oxoimidazolidin-2-ylidene)-3-(pyridin-3-yl)urea]: the IC50 in test [1] and in test [2] was > 5 µM throughout.
